Source: patent US10245261B2, “Substituted indol-5-ol derivatives and their therapeutic applications” (NantBioScience, Inc., priority 2013, dated 2019)

What was measured:
FGFR3(h) = FGFR3(h) (Homo sapiens, UniProt P22607); experiment: KinaseProfiler kinase assay; format: biochemical
PI3KC2α(h) = PI3KC2α(h) (Homo sapiens, UniProt O00443); experiment: KinaseProfiler kinase assay; format: biochemical
[1] = target: PI3 Kinase (p110β/p85α)(h) (Homo sapiens, UniProt P42338); experiment: KinaseProfiler kinase assay; format: biochemical
IR(h), activated = IR(h), activated (Homo sapiens, UniProt P06213); experiment: KinaseProfiler kinase assay; format: biochemical
Sequence of IR(h), activated (P06213 1005-1310): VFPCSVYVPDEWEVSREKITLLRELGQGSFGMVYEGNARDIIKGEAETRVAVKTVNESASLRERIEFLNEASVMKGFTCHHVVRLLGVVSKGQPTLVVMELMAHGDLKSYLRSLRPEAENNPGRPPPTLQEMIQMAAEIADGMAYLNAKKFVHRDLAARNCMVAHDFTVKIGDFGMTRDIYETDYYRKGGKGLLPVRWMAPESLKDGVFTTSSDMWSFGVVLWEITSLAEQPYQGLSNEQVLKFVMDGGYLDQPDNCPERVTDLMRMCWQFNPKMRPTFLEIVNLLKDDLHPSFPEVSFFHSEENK

[2] = test system: TT human Thyroid carcinoma xenograft; experiment: Thyroid carcinoma xenograft; format: in vivo, mouse
Protocol: This example assesses Compound 10, 53 and 88's anti-tumor activity using a SCID mouse xenograft models for TT human Thyroid carcinoma xenograft (FIGS. 65 to 69.)
On the appropriate days, each animal in an appropriate group will receive a specific amount of Compound 10 either at 50 or 100 mg/kg, and the dosing volume is 10 ml/kg by oral gavage as indicated. Dosing schedule will be once daily for 30 days.
On the appropriate days, each animal in an appropriate group will receive a specific amount of Compound 53 either at 50 or 100 mg/kg, and the dosing volume is 10 ml/kg by oral gavage as indicated. Dosing schedule will be once daily for 30 days.
Dosing schedule will be once daily for 30 days.

Flt4(h) = Flt4(h) (Homo sapiens, UniProt P35916); experiment: KinaseProfiler kinase assay; format: biochemical
Sequence of Flt4(h) (P35916 25-1363): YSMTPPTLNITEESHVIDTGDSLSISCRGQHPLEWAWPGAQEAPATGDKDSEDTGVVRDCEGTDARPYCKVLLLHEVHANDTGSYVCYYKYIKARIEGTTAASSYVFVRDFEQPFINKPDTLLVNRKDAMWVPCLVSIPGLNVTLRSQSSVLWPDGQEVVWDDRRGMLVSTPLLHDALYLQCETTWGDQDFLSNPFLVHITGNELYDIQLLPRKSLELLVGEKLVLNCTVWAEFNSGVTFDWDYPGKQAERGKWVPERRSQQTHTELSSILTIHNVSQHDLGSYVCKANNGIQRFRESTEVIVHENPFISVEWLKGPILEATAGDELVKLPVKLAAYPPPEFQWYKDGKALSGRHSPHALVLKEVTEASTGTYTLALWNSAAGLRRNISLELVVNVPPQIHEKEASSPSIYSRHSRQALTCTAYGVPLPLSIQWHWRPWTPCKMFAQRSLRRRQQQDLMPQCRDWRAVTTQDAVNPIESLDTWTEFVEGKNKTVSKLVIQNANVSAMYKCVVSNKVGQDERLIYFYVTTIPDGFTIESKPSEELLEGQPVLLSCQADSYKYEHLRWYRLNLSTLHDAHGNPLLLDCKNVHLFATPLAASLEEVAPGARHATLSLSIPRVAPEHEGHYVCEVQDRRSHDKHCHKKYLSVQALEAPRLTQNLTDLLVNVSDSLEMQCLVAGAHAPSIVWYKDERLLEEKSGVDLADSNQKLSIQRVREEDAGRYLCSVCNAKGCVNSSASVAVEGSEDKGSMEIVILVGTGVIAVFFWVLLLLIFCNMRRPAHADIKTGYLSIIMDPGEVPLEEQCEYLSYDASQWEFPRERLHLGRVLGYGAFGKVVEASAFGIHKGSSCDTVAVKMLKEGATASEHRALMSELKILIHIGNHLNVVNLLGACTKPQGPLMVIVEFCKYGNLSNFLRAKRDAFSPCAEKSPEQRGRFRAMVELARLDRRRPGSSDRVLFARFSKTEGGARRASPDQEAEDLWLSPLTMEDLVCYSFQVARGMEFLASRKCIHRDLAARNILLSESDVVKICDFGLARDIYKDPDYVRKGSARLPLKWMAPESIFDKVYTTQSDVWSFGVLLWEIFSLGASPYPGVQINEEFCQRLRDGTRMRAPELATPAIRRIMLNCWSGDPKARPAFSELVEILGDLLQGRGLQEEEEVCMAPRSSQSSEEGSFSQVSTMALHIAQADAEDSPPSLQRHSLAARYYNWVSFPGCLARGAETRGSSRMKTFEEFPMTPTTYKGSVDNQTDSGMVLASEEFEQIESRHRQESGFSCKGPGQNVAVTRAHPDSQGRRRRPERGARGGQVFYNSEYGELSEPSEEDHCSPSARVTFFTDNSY

[3] = target: PI3 Kinase (p110α(H1047R)/p85α)(h) (Homo sapiens, UniProt P42336, H1047R); experiment: KinaseProfiler kinase assay; format: biochemical
Sequence of PI3 Kinase (p110α(H1047R)/p85α)(h) (P42336 whole entry H1047R): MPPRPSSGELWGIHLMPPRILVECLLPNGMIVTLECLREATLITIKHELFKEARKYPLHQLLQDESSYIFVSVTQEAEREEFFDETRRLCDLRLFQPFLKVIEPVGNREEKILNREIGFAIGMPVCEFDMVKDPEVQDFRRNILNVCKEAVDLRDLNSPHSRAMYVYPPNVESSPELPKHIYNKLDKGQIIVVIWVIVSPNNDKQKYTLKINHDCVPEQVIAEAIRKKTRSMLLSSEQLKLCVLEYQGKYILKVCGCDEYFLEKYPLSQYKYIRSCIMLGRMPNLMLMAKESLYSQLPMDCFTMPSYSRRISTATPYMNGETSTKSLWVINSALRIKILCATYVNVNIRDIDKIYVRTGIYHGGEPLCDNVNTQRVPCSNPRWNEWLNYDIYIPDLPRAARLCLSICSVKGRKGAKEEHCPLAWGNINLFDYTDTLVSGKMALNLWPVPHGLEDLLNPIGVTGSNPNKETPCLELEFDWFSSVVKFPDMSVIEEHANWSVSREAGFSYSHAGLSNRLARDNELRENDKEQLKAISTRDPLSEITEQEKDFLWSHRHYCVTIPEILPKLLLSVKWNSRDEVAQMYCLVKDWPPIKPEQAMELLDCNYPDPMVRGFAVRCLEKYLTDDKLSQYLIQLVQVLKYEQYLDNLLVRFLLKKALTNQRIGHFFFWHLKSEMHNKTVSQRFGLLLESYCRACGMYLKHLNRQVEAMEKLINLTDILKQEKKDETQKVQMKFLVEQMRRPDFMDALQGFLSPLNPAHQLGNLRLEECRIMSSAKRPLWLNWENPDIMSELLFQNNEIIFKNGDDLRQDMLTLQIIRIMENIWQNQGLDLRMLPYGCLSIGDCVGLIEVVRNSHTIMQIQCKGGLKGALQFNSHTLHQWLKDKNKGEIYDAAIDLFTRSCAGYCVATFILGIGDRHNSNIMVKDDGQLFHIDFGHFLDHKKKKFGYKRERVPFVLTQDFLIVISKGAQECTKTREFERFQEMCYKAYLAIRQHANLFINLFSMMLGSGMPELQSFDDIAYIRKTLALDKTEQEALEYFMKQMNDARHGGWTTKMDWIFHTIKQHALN
Sequence of PI3 Kinase (p110α(H1047R)/p85α)(h) (P27986 whole entry partner): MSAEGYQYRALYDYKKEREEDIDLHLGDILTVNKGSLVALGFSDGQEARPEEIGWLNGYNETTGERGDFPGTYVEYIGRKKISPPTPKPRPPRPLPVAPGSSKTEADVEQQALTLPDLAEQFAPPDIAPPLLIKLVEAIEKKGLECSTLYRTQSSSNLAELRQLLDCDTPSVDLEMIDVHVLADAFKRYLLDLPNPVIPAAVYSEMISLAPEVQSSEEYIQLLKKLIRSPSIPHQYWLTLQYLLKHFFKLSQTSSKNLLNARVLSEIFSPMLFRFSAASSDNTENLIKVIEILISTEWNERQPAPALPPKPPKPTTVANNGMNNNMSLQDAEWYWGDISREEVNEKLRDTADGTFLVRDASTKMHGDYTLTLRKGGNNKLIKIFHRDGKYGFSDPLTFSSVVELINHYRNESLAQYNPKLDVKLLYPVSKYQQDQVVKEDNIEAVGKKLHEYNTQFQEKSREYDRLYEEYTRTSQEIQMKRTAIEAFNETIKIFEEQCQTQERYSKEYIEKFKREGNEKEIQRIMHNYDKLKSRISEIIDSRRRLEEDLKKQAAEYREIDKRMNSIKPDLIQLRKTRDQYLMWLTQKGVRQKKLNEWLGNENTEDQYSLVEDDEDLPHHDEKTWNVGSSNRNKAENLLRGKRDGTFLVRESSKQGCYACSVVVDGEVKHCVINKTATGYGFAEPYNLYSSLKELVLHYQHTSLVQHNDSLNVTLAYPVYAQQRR

Met(D1246H)(h) = Met(D1246H)(h) (Homo sapiens, UniProt P08581, D1228H); experiment: KinaseProfiler kinase assay; format: biochemical
Outline: (§1)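 Kinase activity is followed by incorporation of 33P from [γ-33P]ATP in 8 mM MOPS pH 7.0 with 10 mM Mg acetate and 0.2 mM EDTA over 40 min at room temperature. Inhibition is scaled between no-kinase and phosphopeptide control wells.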

NLK(h) = NLK(h) (Homo sapiens, UniProt Q9UBE8); experiment: KinaseProfiler kinase assay; format: biochemical
Outline: as §1

Lck(h) = Lck(h) (Homo sapiens, UniProt P06239); experiment: KinaseProfiler kinase assay; format: biochemical
Sequence of Lck(h) (P06239 whole entry): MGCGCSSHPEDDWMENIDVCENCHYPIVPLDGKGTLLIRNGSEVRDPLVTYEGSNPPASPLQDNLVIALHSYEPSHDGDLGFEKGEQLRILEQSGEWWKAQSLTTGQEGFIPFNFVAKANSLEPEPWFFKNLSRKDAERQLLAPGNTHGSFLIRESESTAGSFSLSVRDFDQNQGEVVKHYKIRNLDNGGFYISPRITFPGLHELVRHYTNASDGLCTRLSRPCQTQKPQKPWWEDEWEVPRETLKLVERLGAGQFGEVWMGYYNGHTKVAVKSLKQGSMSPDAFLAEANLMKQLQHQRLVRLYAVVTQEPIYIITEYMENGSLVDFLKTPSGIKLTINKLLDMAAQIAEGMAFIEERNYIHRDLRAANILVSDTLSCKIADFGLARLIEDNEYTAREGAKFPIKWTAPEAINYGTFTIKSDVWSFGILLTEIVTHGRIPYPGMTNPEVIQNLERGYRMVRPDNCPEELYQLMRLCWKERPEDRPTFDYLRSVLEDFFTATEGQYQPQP

Abl(Y253F)(h) = Abl(Y253F)(h) (Homo sapiens, UniProt P00519, Y253F); experiment: KinaseProfiler kinase assay; format: biochemical
RS4.11 = experiment: CellTiterBlue cell growth inhibition; format: cell-based; conditions: Homo sapiens; RS4.11, 72 hours
AN3.CA = experiment: CellTiterBlue cell growth inhibition; format: cell-based; conditions: Homo sapiens, 72 hours
KU812 = experiment: CellTiterBlue cell growth inhibition; format: cell-based; conditions: Homo sapiens; KU812, 72 hours
Kato III = experiment: CellTiterBlue cell growth inhibition; format: cell-based; conditions: Homo sapiens, 72 hours
TT = experiment: CellTiterBlue cell growth inhibition; format: cell-based; conditions: Homo sapiens, 72 hours
CK1(y) = experiment: KinaseProfiler kinase assay; format: biochemical, yeast
[4] = test system: human K562 chronic myelogenous leukemia (CML) xenograft; experiment: CML xenograft model in female SCID mice; format: in vivo, mouse
Protocol: The objective of the second study was to evaluate antitumor activities of novel multiple-kinase inhibitor NTW-3475 in human K562 chronic myelogenous leukemia (CML) xenograft model in female SCID mice.
Four to six animals were randomly assigned to study groups. Each animal was weighed, and then injected subcutaneously in the left and right flank area with 0.1 ml of 8.0×10^7 K562 cells per mL.
Each test or control animal was on a 5-day on, two-day off for two cycles treatment schedule. Tumor growth was measured with a digital hand held caliper twice weekly (once tumor emerges) prior to the first dosing and then two to three times weekly until euthanized. Animals were weighed prior to tumor cell injection, prior to dosing, two to three times weekly with tumor growth measurements, and prior to euthanasia.
This example illustrated antitumor activities of Compound 10 and 11 in human K562 chronic myelogenous leukemia (CML) xenograft model in female SCID mice.
On the appropriate days, each animal in an appropriate group will receive a specific amount of test article either at 75 or 100 mg/kg, and the dosing volume is 10 ml/kg by oral gavage as indicated. Dosing schedule will be once daily for 10 days (qd×10, 5 days on and 2 days off for 2 cycles).

Sequence of FGFR3(h) (P22607 23-806): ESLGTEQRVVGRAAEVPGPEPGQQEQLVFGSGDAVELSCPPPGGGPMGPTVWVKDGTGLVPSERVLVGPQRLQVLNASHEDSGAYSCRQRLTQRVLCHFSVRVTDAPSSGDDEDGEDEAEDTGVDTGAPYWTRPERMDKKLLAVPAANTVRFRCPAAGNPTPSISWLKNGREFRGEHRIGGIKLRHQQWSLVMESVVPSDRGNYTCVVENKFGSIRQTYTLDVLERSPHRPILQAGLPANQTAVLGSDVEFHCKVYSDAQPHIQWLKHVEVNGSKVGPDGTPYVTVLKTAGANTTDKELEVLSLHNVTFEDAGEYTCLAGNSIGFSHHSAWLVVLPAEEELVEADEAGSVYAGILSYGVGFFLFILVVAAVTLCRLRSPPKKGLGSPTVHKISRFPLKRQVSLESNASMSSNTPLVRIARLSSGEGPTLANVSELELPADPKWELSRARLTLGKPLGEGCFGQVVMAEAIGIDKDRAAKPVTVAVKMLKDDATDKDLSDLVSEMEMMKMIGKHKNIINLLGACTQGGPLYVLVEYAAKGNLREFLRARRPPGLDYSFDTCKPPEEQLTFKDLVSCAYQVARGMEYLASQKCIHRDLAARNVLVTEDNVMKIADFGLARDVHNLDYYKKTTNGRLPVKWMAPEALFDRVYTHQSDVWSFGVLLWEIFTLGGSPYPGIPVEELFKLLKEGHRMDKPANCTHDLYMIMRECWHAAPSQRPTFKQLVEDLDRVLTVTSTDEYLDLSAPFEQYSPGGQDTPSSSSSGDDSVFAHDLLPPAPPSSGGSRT

Cc1cc2c(F)c(Oc3nc(Nc4cc(C5CC5)[nH]n4)cc(N4CCN(C)CC4)n3)ccc2[nH]1 [Compound 10]
inhibition at 0.1 µM (FGFR3(h)): 100% | inhibition at 0.1 µM (PI3KC2α(h)): 15% | inhibition at 0.1 µM [1]: 0% | inhibition at 0.1 µM (IR(h), activated): 73% | anti-tumor effect [2]: anti-tumor effect | inhibition at 0.1 µM (Flt4(h)): 100% | inhibition at 0.1 µM [3]: -8% | inhibition at 0.1 µM (Met(D1246H)(h)): 74% | inhibition at 0.1 µM (NLK(h)): -12% | inhibition at 0.1 µM (Lck(h)): 99% | inhibition at 0.1 µM (Abl(Y253F)(h)): 103% | GI50 (RS4.11): 3.22 nM | GI50 (AN3.CA): 3 nM | GI50 (KU812): < 0.025 nM | GI50 (Kato III): 0.07 nM | GI50 (TT): 8.3 nM | % inhibition @ 0.1 μM (CK1(y)): 17% | anti-tumor effect [4]: strong anti-tumor effect | body weight change [4]: no body weight lost

Cc1cc2c(F)c(Oc3nc(Nc4cc(C5CC5)[nH]n4)cc(N4CCNCC4)n3)ccc2[nH]1 [Compound 11, N-(5-cyclopropyl-1H-pyrazol-3-yl)-2-((4-fluoro-2-methyl-1H-indol-5-yl)oxy)-6-(piperazin-1-yl)pyrimidin-4-amine]
inhibition at 0.1 µM (FGFR3(h)): 101% | inhibition at 0.1 µM (PI3KC2α(h)): -5% | inhibition at 0.1 µM [1]: -1% | inhibition at 0.1 µM (IR(h), activated): 71% | inhibition at 0.1 µM (Flt4(h)): 100% | inhibition at 0.1 µM [3]: -1% | inhibition at 0.1 µM (Met(D1246H)(h)): 93% | inhibition at 0.1 µM (NLK(h)): -8% | inhibition at 0.1 µM (Lck(h)): 98% | inhibition at 0.1 µM (Abl(Y253F)(h)): 100% | GI50 (RS4.11): 3.16 nM | GI50 (KU812): 1.61 nM | % inhibition @ 0.1 μM (CK1(y)): 4% | anti-tumor effect [4]: strong anti-tumor effect | body weight change [4]: no body weight lost

C/C=C/c1cc(Nc2cc(N3CCN(C)CC3)nc(Oc3ccc4[nH]c(C)cc4c3F)n2)n[nH]1 [Compound 53]
IC50 (FGFR3(h); FGFR3): 1 nM | IC50 (Flt4(h); VEGFR3): 2 nM | IC50 (Abl(Y253F)(h); Abl (Y253F)): 0.5 nM | GI50 (RS4.11): 11 nM | GI50 (AN3.CA): 0.78 nM | GI50 (KU812): 0.24 nM | GI50 (Kato III): 0.06 nM | GI50 (TT): 3.5 nM

C/C=C/c1cc(Nc2cc(N3CCNCC3)nc(Oc3ccc4[nH]c(C)cc4c3F)n2)n[nH]1 [Compound 68]
GI50 (AN3.CA): 0.88 nM | GI50 (TT): 1.9 nM

Cc1cc2c(F)c(Oc3nc(Nc4cc(C5CC5)[nH]n4)cc(N4CCNCC4)n3)cc(F)c2[nH]1 [Compound 82]
GI50 (RS4.11): 2.65 nM | GI50 (KU812): 0.75 nM

C/C=C/c1cc(Nc2cc(N3CCN(CCO)CC3)nc(Oc3cc(F)c4[nH]c(C)cc4c3F)n2)n[nH]1 [Compound 88]
anti-tumor effect [2]: Inhibits Tumor Growth | GI50 (RS4.11): 3.71 nM | GI50 (AN3.CA): 0.31 nM | GI50 (KU812): 0.71 nM | GI50 (Kato III): 0.06 nM | GI50 (TT): 3.4 nM

C/C=C/c1cc(Nc2cc(N3CCN(C)CC3)nc(Oc3cc(F)c4[nH]c(C)cc4c3F)n2)n[nH]1 [NTW-3456]
anti-tumor effect [2]: significant anti-tumor activity | anti-tumor effect [4]: significant anti-tumor activity
